How the values were obtained:
IRE1α [1] = target: T1, IRE1α (Homo sapiens (Human), UniProt O75460); assay: In vitro FRET assay; type: biochemical; details: XBP1 RNA probe
Procedure, shortened: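 IRE1α (diluted to 2 nM) in citrate buffer pH 7.15 with serially diluted compound; FAM/Iowa Black-quenched XBP1 RNA probe (wildtype or non-spliceable mutant) added, fluorescence read […]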

IRE1 = IRE1 (Homo sapiens (Human), UniProt O75460); assay: qPCR assay of XBP1 splicing; type: cell-based; details: 293T cells, tunicamycin-induced ER stress
Protocol: A quantitative PCR (qPCR) assay was performed to evaluate the ability of compound 17 and compound 23 to inhibit IRE1. To perform the qPCR assay, 50,000 293T cells were plated in each well of a flat-bottomed 96 well plates in duplicate. Test compounds or DMSO control were diluted to 4× their final concentration and 50 microliters were added to the cells. Compounds were incubated for 1 hour, then 50 microliters of 4× concentrated tunicamycin (8 ug/mL) were added to the cells to induce ER stress. ER stress was allowed to accumulate for 6 hours, after which the supernatant was removed and the cells were lysed with 150 uL of RLT lysis buffer (Qiagen). Samples were frozen at −80 degrees Celsius until RNA was isolated with the RNeasy 96 kit (Qiagen) according to the manufacturer's recommended protocol. The samples were used for subsequent RT-qPCR analysis of beta-actin, XBP1s, total XBP1 and SEC24D. Gene expression was evaluated by quantitative PCR for XBP1s, total XBP1 and SEC24D transcripts using the 2^(−ΔCT) method for calculating normalized gene expression. Gene expression levels were normalized to ACTB transcripts. XBP1 splicing is calculated as XBP1s expression divided by total XBP1 expression. […] See FIG. 3A (Compound 17) and FIG. 3B (Compound 23).

293T cells = assay: Growth assay (cytotoxicity); type: cell-based; details: Homo sapiens, HEK-293T, 48 h, 2 day incubation, read-out: percentage growth at 5 uM
Protocol: A growth assay is performed to evaluate the compounds disclosed in Table 1 for cytotoxicity. Briefly, 5,000,000 293T cells are resuspended in 18 mL of cDMEM for a final concentration of 277,777 cells/mL. 180 μL (50,000 cells) cDMEM was seeded per well in 96 well flat bottom plate, with some wells left unfilled. In a 96 well plate, […] cDMEM and 1 uL of any one of the compounds disclosed herein. 133.3 uL cDMEM is added to wells 1, 2, 3, 5, 6, 7, 9, 10, and 11 of row A. Wells are serially diluted with 66.7 uL (highest concentration on right, lowest on left) to the total concentrations shown below. 20 uL of each dilution is transferred in duplicate to the cells plated in the 96-well plate. The plate is then placed in a humidified chamber for a 2 day incubation, and then photographed (media is more yellow in wells with potent cell growth). Absorbance is then measured at […] (lower for more acidic media) and […] (higher for more acidic media).

IRE1α [2] = target: T1, IRE1α; assay: In vitro luciferase assay (IRE1α Endoribonuclease Nanoluciferase Assay); type: cell-based; details: 293T cells, XBP1 luciferase reporter
Procedure, shortened: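 293T cells transiently transfected with a PGK-Luc2-P2A-XBP1u-nanoluciferase-PEST reporter for IRE1α-dependent XBP1 splicing, replated, and treated next day with ER stressors ± inhibitors. Lysates read sequentially for luminescence (OneGlo, then Stop and Glo), 1000 ms integration.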

T1 sequence (O75460 19-977): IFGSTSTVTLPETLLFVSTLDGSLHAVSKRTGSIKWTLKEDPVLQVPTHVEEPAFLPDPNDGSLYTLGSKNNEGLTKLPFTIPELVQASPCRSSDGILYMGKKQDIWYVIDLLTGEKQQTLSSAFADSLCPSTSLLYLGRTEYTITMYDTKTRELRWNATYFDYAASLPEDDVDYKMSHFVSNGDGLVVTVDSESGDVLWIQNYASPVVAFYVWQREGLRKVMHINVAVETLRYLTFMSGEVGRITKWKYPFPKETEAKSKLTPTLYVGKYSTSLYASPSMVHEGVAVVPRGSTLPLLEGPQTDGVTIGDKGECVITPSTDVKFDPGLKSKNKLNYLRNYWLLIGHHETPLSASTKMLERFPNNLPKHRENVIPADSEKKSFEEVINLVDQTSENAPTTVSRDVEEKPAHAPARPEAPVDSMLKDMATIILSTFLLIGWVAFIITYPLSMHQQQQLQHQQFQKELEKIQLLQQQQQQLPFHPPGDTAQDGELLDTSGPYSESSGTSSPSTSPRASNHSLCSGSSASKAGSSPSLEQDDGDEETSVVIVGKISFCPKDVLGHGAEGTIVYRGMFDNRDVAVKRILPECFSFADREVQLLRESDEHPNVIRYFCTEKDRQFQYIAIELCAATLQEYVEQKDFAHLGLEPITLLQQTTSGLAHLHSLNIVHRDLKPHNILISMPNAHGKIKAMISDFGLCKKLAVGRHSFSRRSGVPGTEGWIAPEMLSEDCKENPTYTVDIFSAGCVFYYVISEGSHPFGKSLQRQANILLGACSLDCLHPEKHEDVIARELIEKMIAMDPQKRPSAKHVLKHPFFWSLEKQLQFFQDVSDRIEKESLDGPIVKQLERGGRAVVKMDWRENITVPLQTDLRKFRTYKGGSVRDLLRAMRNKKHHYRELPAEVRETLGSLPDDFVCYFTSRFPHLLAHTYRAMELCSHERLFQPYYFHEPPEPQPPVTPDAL
IRE1, sequence (O75460 19-977): as above

IC50 (IRE1α [1]) | IC50 (IRE1) | EC50 (IRE1α [2]) | Compound | viability at 5 µM (293T cells)
≤ 1 nM | 4.39 nM | ≤ 5 nM | Cc1nc(NS(=O)(=O)c2ccccc2Cl)ccc1/C=C/c1cnc(NC2CCC(N(C)C)CC2)nc1 (centres unmarked) [Compound 23, 2-chloro-N-(5-((E)-2-(2-(((1r,4r)-4-(dimethylamino)cyclohexyl)amino)pyrimidin-5-yl)vinyl)-6-methylpyridin-2-yl)benzenesulfonamide] | > 75%
≤ 1 nM | 4.95 nM | ≤ 5 nM | COc1nc(NS(=O)(=O)c2ccccc2Cl)ccc1/C=C/c1cnc(NC2CCC(N(C)C)CC2)nc1 (centres unmarked) [Compound 17, 2-chloro-N-(5-((E)-2-(2-(((1r,4r)-4-(dimethylamino)cyclohexyl)amino)pyrimidin-5-yl)vinyl)-6-methoxypyridin-2-yl)benzenesulfonamide] | > 75%
≤ 1 nM |  | 5 to 50 nM | CCc1nc(NS(=O)(=O)c2ccccc2Cl)ccc1/C=C/c1cnc(NC2CCC(NC)CC2)nc1 (centres unmarked) [Compound 47, 2-chloro-N-(6-ethyl-5-((E)-2-(2-(((1r,4r)-4-(methylamino)cyclohexyl)amino)pyrimidin-5-yl)vinyl)pyridin-2-yl)benzenesulfonamide] | > 75%
≤ 1 nM |  | 5 to 50 nM | COc1nc(NS(=O)(=O)c2ccc(F)c(F)c2Cl)ccc1/C=C/c1cnc(NC2CCC(N(C)C)CC2)nc1 (centres unmarked) [Compound 41, 2-chloro-N-(5-((E)-2-(2-(((1r,4r)-4-(dimethylamino)cyclohexyl)amino)pyrimidin-5-yl)vinyl)-6-methoxypyridin-2-yl)-3,4-difluorobenzenesulfonamide] | > 75%

Source: US11945784B2, “IRE1 small molecule inhibitors” (Cornell University, priority 2018, dated 2024)
